Assays:
Test in all cases: relative viability (nuclei count vs DMSO), 5 days (fraction); higher = more cells survive
NCI-H661 = tested on: NCI-H661
Method in brief: (§1)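 Relative viability was taken as the ratio of nuclei in treated wells to nuclei in vehicle wells. Lung cancer cell lines in 1536-well plates received compounds by pin tool one day after seeding, either one drug alone or a fixed anchor-drug dose plus five library-drug doses (not always all listed) in √10 steps. Nuclei were counted on 4× images after 5 days of treatment, and values are medians of duplicate plates.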

NCI-H1651 = tested on: NCI-H1651
Method in brief: as §1

NCI-H650 = tested on: NCI-H650
Method in brief: as §1

NCI-H596 = tested on: NCI-H596
Method in brief: as §1

NCI-H460 = tested on: NCI-H460
Method in brief: as §1

NCI-H727 = tested on: NCI-H727
Method in brief: as §1

NCI-H520 = tested on: NCI-H520
Method in brief: as §1

ABC-1 = tested on: ABC-1
Method in brief: as §1

NCI-H1915 = tested on: NCI-H1915
Method in brief: as §1

NCI-H1944 = tested on: NCI-H1944
Method in brief: as §1

A-427 = tested on: A-427
Method in brief: as §1

Question: With `CC(=O)O[C@@]12CO[C@@H]1C[C@H](O)[C@@]1(C)C(=O)[C@H](O)C3=C(C)[C@@H](OC(=O)[C@H](O)[C@@H](NC(=O)OC(C)(C)C)c4ccccc4)C[C@@](O)([C@@H](OC(=O)c4ccccc4)[C@H]21)C3(C)C` [Docetaxel] + Cc1nc(Nc2ncc(C(=O)Nc3c(C)cccc3Cl)s2)cc(N2CCN(CCO)CC2)n1 [Dasatinib] (partner 0.075 µM) as the compound, how does the relative viability (NCI-H661; first compound 0.000632 µM) read?
Answer: The relative viability was 0.792.

Question: And the relative viability (NCI-H661; first compound 0.002 µM)?
Answer: Its relative viability is 0.528.

Question: And the relative viability (NCI-H661; first compound 0.006325 µM)?
Answer: Its relative viability is 0.395.

Question: And the relative viability (NCI-H661; first compound 0.02 µM)?
Answer: Its relative viability is 0.284.

Question: What about the relative viability (NCI-H1651; first compound 0.0002 µM) of the same compound?
Answer: The relative viability was 0.338.

Question: And the relative viability (NCI-H1651; first compound 0.000632 µM)?
Answer: Its relative viability is 0.236.

Question: And the relative viability (NCI-H1651; first compound 0.002 µM)?
Answer: The relative viability was 0.119.

Question: And the relative viability (NCI-H1651; first compound 0.006325 µM)?
Answer: The relative viability was 0.0789.

Question: What about the relative viability (NCI-H1651; first compound 0.02 µM) of the same compound?
Answer: Its relative viability is 0.0711.

Question: And the relative viability (NCI-H650; first compound 0.0002 µM)?
Answer: The relative viability was 0.396.

Question: What about the relative viability (NCI-H650; first compound 0.000632 µM) of the same compound?
Answer: Its relative viability is 0.361.

Question: And the relative viability (NCI-H650; first compound 0.002 µM)?
Answer: Its relative viability is 0.253.

Question: And the relative viability (NCI-H650; first compound 0.006325 µM)?
Answer: Its relative viability is 0.228.

Question: And the relative viability (NCI-H650; first compound 0.02 µM)?
Answer: The relative viability was 0.198.

Question: What about the relative viability (NCI-H596; first compound 0.0002 µM) of the same compound?
Answer: Its relative viability is 0.551.

Question: And the relative viability (NCI-H596; first compound 0.000632 µM)?
Answer: The relative viability was 0.6.

Question: What about the relative viability (NCI-H596; first compound 0.002 µM) of the same compound?
Answer: The relative viability was 0.543.

Question: And the relative viability (NCI-H596; first compound 0.006325 µM)?
Answer: Its relative viability is 0.397.

Question: What about the relative viability (NCI-H596; first compound 0.02 µM) of the same compound?
Answer: The relative viability was 0.222.

Question: And the relative viability (NCI-H460; first compound 0.0002 µM)?
Answer: The relative viability was 0.457.

Question: What about the relative viability (NCI-H460; first compound 0.000632 µM) of the same compound?
Answer: The relative viability was 0.44.

Question: What about the relative viability (NCI-H460; first compound 0.002 µM) of the same compound?
Answer: Its relative viability is 0.089.

Question: What about the relative viability (NCI-H460; first compound 0.006325 µM) of the same compound?
Answer: Its relative viability is 0.0266.

Question: And the relative viability (NCI-H460; first compound 0.02 µM)?
Answer: The relative viability was 0.0131.

Question: What about the relative viability (NCI-H727; first compound 0.0002 µM) of the same compound?
Answer: The relative viability was 0.367.

Question: And the relative viability (NCI-H727; first compound 0.000632 µM)?
Answer: The relative viability was 0.326.

Question: And the relative viability (NCI-H727; first compound 0.002 µM)?
Answer: Its relative viability is 0.272.

Question: What about the relative viability (NCI-H727; first compound 0.006325 µM) of the same compound?
Answer: Its relative viability is 0.395.

Question: And the relative viability (NCI-H727; first compound 0.02 µM)?
Answer: Its relative viability is 0.276.

Question: What about the relative viability (NCI-H520; first compound 0.0002 µM) of the same compound?
Answer: The relative viability was 0.186.

Question: And the relative viability (NCI-H520; first compound 0.000632 µM)?
Answer: The relative viability was 0.194.

Question: What about the relative viability (NCI-H520; first compound 0.002 µM) of the same compound?
Answer: Its relative viability is 0.164.

Question: What about the relative viability (NCI-H520; first compound 0.006325 µM) of the same compound?
Answer: The relative viability was 0.159.

Question: And the relative viability (NCI-H520; first compound 0.02 µM)?
Answer: Its relative viability is 0.126.

Question: What about the relative viability (ABC-1; first compound 0.0002 µM) of the same compound?
Answer: Its relative viability is 0.533.

Question: And the relative viability (ABC-1; first compound 0.000632 µM)?
Answer: The relative viability was 0.434.

Question: And the relative viability (ABC-1; first compound 0.002 µM)?
Answer: The relative viability was 0.388.

Question: What about the relative viability (ABC-1; first compound 0.006325 µM) of the same compound?
Answer: The relative viability was 0.36.

Question: And the relative viability (ABC-1; first compound 0.02 µM)?
Answer: The relative viability was 0.252.

Question: And the relative viability (NCI-H1915; first compound 0.0002 µM)?
Answer: The relative viability was 0.304.

Question: What about the relative viability (NCI-H1915; first compound 0.000632 µM) of the same compound?
Answer: The relative viability was 0.331.

Question: And the relative viability (NCI-H1915; first compound 0.002 µM)?
Answer: The relative viability was 0.228.

Question: What about the relative viability (NCI-H1915; first compound 0.006325 µM) of the same compound?
Answer: Its relative viability is 0.153.

Question: What about the relative viability (NCI-H1915; first compound 0.02 µM) of the same compound?
Answer: The relative viability was 0.0717.

Question: What about the relative viability (NCI-H1944; first compound 0.0002 µM) of the same compound?
Answer: The relative viability was 0.216.

Question: And the relative viability (NCI-H1944; first compound 0.000632 µM)?
Answer: The relative viability was 0.228.

Question: What about the relative viability (NCI-H1944; first compound 0.002 µM) of the same compound?
Answer: The relative viability was 0.204.

Question: What about the relative viability (NCI-H1944; first compound 0.006325 µM) of the same compound?
Answer: The relative viability was 0.178.

Question: And the relative viability (NCI-H1944; first compound 0.02 µM)?
Answer: The relative viability was 0.105.

Question: And the relative viability (A-427; first compound 0.0002 µM)?
Answer: The relative viability was 0.721.

Question: What about the relative viability (A-427; first compound 0.000632 µM) of the same compound?
Answer: The relative viability was 0.642.

Question: And the relative viability (A-427; first compound 0.002 µM)?
Answer: Its relative viability is 0.445.

Question: And the relative viability (A-427; first compound 0.006325 µM)?
Answer: Its relative viability is 0.154.

Question: What about the relative viability (A-427; first compound 0.02 µM) of the same compound?
Answer: The relative viability was 0.141.

From the supplement of paper PMC10307832
